Experimental findings from patent US11052153B2, “Highly branched alpha-D-glucans” (Purdue Research Foundation, priority 2012, dated 2021) are described below.

A short description of one data set: physchem. It counts as physicochemical. The following applies: 22 °C, pH 6.6, aqueous buffer, kinetic from dmso stock.
A further data set has as its system Salmonella typhimurium. As to the kind of experiment: Minimum inhibitory concentration of thymol in BHI broth (turbidity). It counts as cell-based. Conditions: Salmonella enterica, 37° C., 24 hours, 1.0% (v/v) inoculum. The method, then: The mixture was subjected to high speed homogenization. After homogenization, the dispersion was centrifuged to collect aqueous liquid. The concentration of thymol in this phytoglycogen-thymol liquid stock was determined to be about 400 μg/mL. As reference, a thymol-alone stock of 400 μg/mL in sodium acetate buffer (50 mM, pH 5.5) was prepared by adding thymol in the buffer and vortex. The phytoglycogen-thymol stock and thymol-alone stock were added to Brain Heart Infusion (BHI) broth to make the thymol concentrations of 12.5, 25, 50, 80, 100, and 125 μg/mL. To the glass tubes containing these broth liquids, Salmonella typhimurium culture (about 10^9 CFU/mL) was inoculated at a 1.0% (v/v) level, and all liquids were incubated at 37° C. for 24 hours. Thereafter, the tubes were photographed for comparing the turbidity.

The nature of data set [1]: Curcumin solubility in pH 6.5 10 mM NaAc buffer as affected by carriers. Type of data set: physicochemical. Conditions: carrier 10 mg/mL; for Curcumin Solubility: excess curcumin homogenized. The method, then:
Thereafter, 1.0 mL aliquot was drawn from each mixture and subjected to centrifugation. The supernatant was added to ethanol to extract curcumin.

Usually solubility stands for the concentration that dissolves in the medium under given conditions. As to `COc1cc(/C=C/C(=O)CC(=O)/C=C/c2ccc(O)c(OC)c2)ccc1O` [curcumin], the solubility at 2 h in the data set “physchem” was below 0.3 µg/mL.
As usually defined, the MIC is the lowest concentration found to suppress growth. Low values mean a more susceptible organism, high ones a less susceptible organism. In the data set on Salmonella typhimurium, `Cc1ccc(C(C)C)c(O)c1` [thymol-alone, thymol] had an MIC above 125 µg/mL.
As to `OC[C@H]1O[C@@H]2O[C@H]3[C@H](O)[C@@H](O)[C@@H](O[C@H]4[C@H](O)[C@@H](O)[C@@H](O[C@H]5[C@H](O)[C@@H](O)[C@@H](O[C@H]6[C@H](O)[C@@H](O)[C@@H](O[C@H]7[C@H](O)[C@@H](O)[C@@H](O[C@H]8[C@H](O)[C@@H](O)[C@@H](O[C@H]1[C@H](O)[C@H]2O)O[C@@H]8CO)O[C@@H]7CO)O[C@@H]6CO)O[C@@H]5CO)O[C@@H]4CO)O[C@@H]3CO` [βCD, β-cyclodextrin], in data set [1], the Carrier/curcumin ratio is 222/1 and the “Curcumin Solubility” value was found to be 45.1 µg/mL.
Consider hydroxypropyl β-cyclodextrin [HPβCD], for which, in data set [1], the Carrier/curcumin ratio is listed as 91/1 and the “Curcumin Solubility” value was 110 µg/mL.
